Experiments:
Neutrophil elastase = target: T1, Neutrophil elastase (Homo sapiens, UniProt P08246); assay: Inhibitory activity against human leukocyte elastase (HL elastase) expressed as inhibitory constant
T1 sequence (P08246 whole entry): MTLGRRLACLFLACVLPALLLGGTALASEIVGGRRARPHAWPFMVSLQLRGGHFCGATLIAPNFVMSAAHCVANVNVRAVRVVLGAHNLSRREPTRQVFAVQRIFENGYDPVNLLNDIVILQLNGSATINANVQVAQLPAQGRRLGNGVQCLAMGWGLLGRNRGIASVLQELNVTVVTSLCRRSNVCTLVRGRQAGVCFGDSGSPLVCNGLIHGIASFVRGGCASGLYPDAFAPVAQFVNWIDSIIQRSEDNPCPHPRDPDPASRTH

[1] = target: Chymotrypsin-like elastase family member 1 (Sus scrofa, UniProt P00772); assay: Inhibitory activity against porcine pancreatic elastase (PP elastase) expressed as inhibitory constant
[2] = Partition coefficient (logP) (octanol/saline); format: physicochemical

Sequence of Chymotrypsin-like elastase family member 1 (P00772 whole entry): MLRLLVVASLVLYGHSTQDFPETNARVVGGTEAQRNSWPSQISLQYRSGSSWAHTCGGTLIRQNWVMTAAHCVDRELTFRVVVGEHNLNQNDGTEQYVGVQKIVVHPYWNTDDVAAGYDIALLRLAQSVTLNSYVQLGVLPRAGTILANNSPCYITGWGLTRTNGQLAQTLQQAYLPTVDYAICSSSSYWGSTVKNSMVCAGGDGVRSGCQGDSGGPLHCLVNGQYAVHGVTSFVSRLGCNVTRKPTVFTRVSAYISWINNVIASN

Ki (Neutrophil elastase) | Ki [1] | logP [2] | SMILES
977 µM | 2140 µM | 0.78 | Cc1c(O)cc(CC(=O)c2ccccc2)oc1=O
646 µM | 562 µM | 0.79 | CCCCc1c(C)oc(O)c(CCCC)c1=O
10000 µM | – | 0.43 | O=C(Cc1cc(=O)cc(O)o1)c1ccccc1
288 µM | 251 µM | 2.82 | CCCCc1c(CC(C)=O)oc(=O)c(CCCC)c1OC(C)=O
6310 µM | 3890 µM | 0.74 | Cc1cc(O)c(C)c(=O)o1
– | 8.13 µM | 3.53 | CCCCCC(=O)C(CCCC)c1oc(=O)c(CCCC)c(OC(C)=O)c1CCCC (stereo unspecified)
6030 µM | 3240 µM | 0.73 | Cc1c(CC(=O)c2ccccc2)oc(=O)c(C)c1O
339 µM | 316 µM | 2.17 | CCCCc1c(C2OC2C)oc(=O)c(CCCC)c1OC(C)=O (stereo unspecified)
151 µM | 15.1 µM | 1.52 | CCCCCCC(C=O)(CCCC)c1oc(=O)c(CCCC)c(O)c1CCCC (stereo unspecified)
4900 µM | 21900 µM | 0.36 | Cc1oc(=O)c(C)c(O)c1C
93.3 µM | 69.2 µM | 2.52 | CCCCCC(=O)C(CCCC)c1oc(=O)c(CCCC)c(O)c1CCCC (stereo unspecified)
363 µM | 141 µM | 1.39 | C/C=C(\c1ccccc1)c1oc(=O)c(CCCC)c(O)c1CCCC
490 µM | 741 µM | 1.74 | CCCCc1c(CC(C)=O)oc(=O)c(CCCC)c1O
95.5 µM | 21.4 µM | 1.21 | CCCCc1c(C(CCCC)C(=O)c2ccccc2)oc(=O)c(CCCC)c1O (stereo unspecified)
347 µM | 1070 µM | 1.92 | CCCCc1c(CC(C)O)oc(=O)c(CCCC)c1OC(C)=O (stereo unspecified)
8130 µM | 3090 µM | 0.5 | Cc1cc(O)cc(=O)o1 [4-HYDROXY-6-METHYLPYRAN-2-ONE]
